Data set [1] has as its target T1, Luciferin 4-monooxygenase (Luciola lateralis, UniProt Q01158).
T1 sequence (Q01158 whole entry): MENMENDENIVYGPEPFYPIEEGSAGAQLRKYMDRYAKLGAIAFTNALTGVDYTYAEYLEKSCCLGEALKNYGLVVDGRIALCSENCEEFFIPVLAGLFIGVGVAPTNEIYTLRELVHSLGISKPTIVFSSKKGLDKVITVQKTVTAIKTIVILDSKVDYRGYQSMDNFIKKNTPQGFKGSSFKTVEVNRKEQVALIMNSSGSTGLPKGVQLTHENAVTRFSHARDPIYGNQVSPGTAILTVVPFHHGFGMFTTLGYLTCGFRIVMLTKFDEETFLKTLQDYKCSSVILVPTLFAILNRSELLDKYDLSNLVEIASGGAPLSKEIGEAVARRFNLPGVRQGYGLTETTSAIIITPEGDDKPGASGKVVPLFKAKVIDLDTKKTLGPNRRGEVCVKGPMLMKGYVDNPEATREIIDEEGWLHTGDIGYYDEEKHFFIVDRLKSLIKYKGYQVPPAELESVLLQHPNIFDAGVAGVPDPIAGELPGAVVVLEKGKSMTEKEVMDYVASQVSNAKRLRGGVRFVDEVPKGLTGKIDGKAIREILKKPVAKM
Briefly: Inhibition constant against luciferase with respect to luciferyl-adenylate. On the set-up: species or system Aquatica lateralis.

The target of data set [2] is T1, Luciferin 4-monooxygenase. Briefly: Inhibition constant against luciferase with respect to natural substrate Mg-ATP. On the set-up: species or system Aquatica lateralis.
In data set [3] the target is T1, Luciferin 4-monooxygenase. Briefly: Inhibition constant against luciferase with respect to natural substrate luciferin. On the set-up: species or system Aquatica lateralis.
Substrate in data set [4]: Nc1ncnc2c1ncn2C1O[C@H](COP(=O)(O)OC(=O)c2csc(-c3nc4ccc(O)cc4s3)n2)[C@@H](O)[C@H]1O
Briefly: Binding affinity against luciferase. The following applies: Aquatica lateralis.

`Nc1ncnc2c1ncn2[C@@H]1O[C@H](COS(=O)(=O)NC(=O)c2csc(-c3nc4ccc(O)cc4s3)n2)[C@@H](O)[C@H]1O`: the Ki in data set [1] came to 340 nM; in data set [2], 41 nM; in data set [3] it was 34 nM.

B1: Luciferin 4-monooxygenase (Luciola lateralis), Q01158 (protein)
chain: T1 sequence (Q01158 whole entry)
As to B1, in data set [4], the Michaelis-Menten constant (Km) turned out to be 4.7 µM.

For the origin of these results see ChEMBL document CHEMBL1139587, “Synthesis of an N-acyl sulfamate analog of luciferyl-AMP: a stable and potent inhibitor of firefly luciferase” (Bioorg Med Chem Lett, 2005).
